# Read-outs that look alike come from different tables or passages of the source.
# Experiments:
# human OAT1 = biological target: T1, human OAT1 (Homo sapiens, UniProt Q4U2R8); experiment: SLC transporter substrate assay, HEK293-OAT1-LV vs control HEK293-Mock-B-LV cells; settings: 20 min
# T1 sequence (Q4U2R8 1-563): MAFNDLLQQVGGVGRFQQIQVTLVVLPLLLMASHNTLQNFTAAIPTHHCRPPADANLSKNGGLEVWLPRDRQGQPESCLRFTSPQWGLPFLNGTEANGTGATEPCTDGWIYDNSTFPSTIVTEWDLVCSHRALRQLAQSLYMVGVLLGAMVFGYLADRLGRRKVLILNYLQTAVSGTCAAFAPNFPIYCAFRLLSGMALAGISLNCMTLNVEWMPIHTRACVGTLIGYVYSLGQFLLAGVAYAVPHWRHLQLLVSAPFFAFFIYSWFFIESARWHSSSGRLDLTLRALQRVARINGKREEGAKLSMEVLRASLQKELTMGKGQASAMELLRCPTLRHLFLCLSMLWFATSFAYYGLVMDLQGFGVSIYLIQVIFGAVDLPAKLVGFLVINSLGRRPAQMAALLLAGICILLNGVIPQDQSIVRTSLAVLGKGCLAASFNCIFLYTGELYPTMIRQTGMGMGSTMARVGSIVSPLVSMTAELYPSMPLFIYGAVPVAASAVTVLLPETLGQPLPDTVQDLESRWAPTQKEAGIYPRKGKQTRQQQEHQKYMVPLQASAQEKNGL
# human BCRP = biological target: T2, human BCRP (Homo sapiens, UniProt Q9UNQ0); settings: E3S probe; for ATP dependent transport / Relative ATP dependent transport: mean (n=3) ± SD
# T2 sequence (Q9UNQ0 1-655): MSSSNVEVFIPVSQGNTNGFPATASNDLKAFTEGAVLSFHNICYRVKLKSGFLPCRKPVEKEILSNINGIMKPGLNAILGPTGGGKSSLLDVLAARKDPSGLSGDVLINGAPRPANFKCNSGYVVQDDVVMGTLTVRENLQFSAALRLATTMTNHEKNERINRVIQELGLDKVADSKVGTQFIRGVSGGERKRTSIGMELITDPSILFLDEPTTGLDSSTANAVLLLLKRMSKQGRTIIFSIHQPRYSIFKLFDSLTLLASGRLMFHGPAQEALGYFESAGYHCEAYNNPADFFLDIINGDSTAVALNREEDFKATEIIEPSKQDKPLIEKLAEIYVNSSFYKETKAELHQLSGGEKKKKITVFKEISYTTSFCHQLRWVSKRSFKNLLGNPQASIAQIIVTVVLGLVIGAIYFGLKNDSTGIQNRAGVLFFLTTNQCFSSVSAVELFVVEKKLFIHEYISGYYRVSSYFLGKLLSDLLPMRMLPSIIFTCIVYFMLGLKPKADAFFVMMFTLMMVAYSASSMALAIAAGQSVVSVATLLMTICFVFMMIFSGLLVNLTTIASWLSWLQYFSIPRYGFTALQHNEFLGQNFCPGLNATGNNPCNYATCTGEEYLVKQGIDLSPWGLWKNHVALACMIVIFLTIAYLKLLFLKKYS
# Experimental: The incubations were carried out in the presence of 4 mM ATP or AMP to distinguish between transporter-mediated uptake and passive diffusion into the vesicles. […] Afterwards, the reaction mixtures were pre-incubated for 15 min at 37 °C for MRP1 or at 32 °C for BCRP, MDR1 and MRP4, respectively. The transporter assay was initiated through the addition of 25 μL of pre-warmed 12 mM MgATP (or 12 mM AMP in assay buffer as a background control). The reactions were quenched through the addition of 200 μL of ice-cold washing buffer and immediate filtration via glass fiber filters mounted onto a 96-well plate (filter plate). The filters were washed (5 × 200 μL of ice-cold washing buffer) and dried, and the amount of probe substrate inside the filtered vesicles was determined using LSC. The experiments were conducted in triplicate.
# Calculation of ATP-dependent transport and inhibition for vesicular transport inhibition
# For all wells the amount of the translocated probe substrate was determined in counts per minute (cpm).
# ATP-dependent transport (pmol/mg protein/min) is calculated for each concentration using the following
# 𝐴𝑐𝑐𝐴𝑇𝑃 ∙ 𝑉 ∙ 𝐶𝐶 𝐴𝑐𝑐𝐴𝑀𝑃 ∙𝑉 ∙𝐶𝐶
# 𝐴𝑇𝑃 − 𝑑𝑒𝑝𝑒𝑛𝑑𝑒𝑛𝑡 𝑎𝑐𝑐𝑢𝑚𝑢𝑙𝑎𝑡𝑖𝑜𝑛 = ( 𝑇𝐶𝑃𝑀 𝑠𝑢𝑏) − ( 𝑇𝐶𝑃𝑀 𝑠𝑢𝑏)
# • AccATP: probe substrate accumulation with ATP (cpm)
# • AccAMP: probe substrate accumulation with AMP (cpm)
# • Tcpm: cpm in dosing solution V: volume per well (µL)
# • CCsub: probe substrate concentration (µM)
# • Prot: total protein per well (mg)
# • t: incubation time (min)
# Relative ATP-dependent transport (%) values were calculated using the following equation:
# 𝑅𝑒𝑙𝑎𝑡𝑖𝑣𝑒 𝐴𝑇𝑃 − 𝑑𝑒𝑝𝑒𝑛𝑑𝑒𝑛𝑡 𝑡𝑟𝑎𝑛𝑠𝑝𝑜𝑟𝑡 (%) = 𝐴 − 𝐵 ∙ 100
# • A: amount of translocated substrate in the presence of test substance (TS) and ATP
# • B: amount of translocated substrate in the presence of test substance (TS) and AMP
# • C: amount of translocated substrate in the presence of solvent and ATP
# • D: amount of translocated substrate in the presence of solvent and AMP
# Relative inhibition (%) is calculated by setting probe substrate transport in the absence of test substance as
# 𝑅𝑒𝑙𝑎𝑡𝑖𝑣𝑒 𝑖𝑛ℎ𝑖𝑏𝑖𝑡𝑖𝑜𝑛 (%) = 𝐴𝑐𝑐𝑆𝑝𝑒𝑐𝑖𝑓𝑖𝑐,𝑥 ∙100
# • Accspecific,x: transporter specific accumulation for a given sample (pmol/mg/min)
# • Accspecific,vehicle: transporter specific accumulation for a solvent control (pmol/mg/min)
# Data are expressed as m ean
# measured in the vesicular transport inhibition assay.
# Nominal ATP Relative ATP Relative
# Compound concentration [µM] dependent transport dependent transport inhibition [%]
# [pmol/mg/min] [% of control]
# Data are expressed as mean (n=3) ± SD.
# MRP4 = biological target: T3, MRP4 (Homo sapiens, UniProt O15439); experiment: Vesicular transport inhibition assay (ABC), MRP4-mediated DHEAS transport, HEK293 membrane vesicles; format: in vitro ADME; settings: for Relative inhibition / ATP dependent transport / Relative ATP dependent transport: DHEAS probe; for ATP dependent transport / Relative ATP dependent transport: mean (n=3) ± SD
# T3 construct: host or cells: HEK293 (membrane vesicles)
# T3 sequence (O15439 1-1325): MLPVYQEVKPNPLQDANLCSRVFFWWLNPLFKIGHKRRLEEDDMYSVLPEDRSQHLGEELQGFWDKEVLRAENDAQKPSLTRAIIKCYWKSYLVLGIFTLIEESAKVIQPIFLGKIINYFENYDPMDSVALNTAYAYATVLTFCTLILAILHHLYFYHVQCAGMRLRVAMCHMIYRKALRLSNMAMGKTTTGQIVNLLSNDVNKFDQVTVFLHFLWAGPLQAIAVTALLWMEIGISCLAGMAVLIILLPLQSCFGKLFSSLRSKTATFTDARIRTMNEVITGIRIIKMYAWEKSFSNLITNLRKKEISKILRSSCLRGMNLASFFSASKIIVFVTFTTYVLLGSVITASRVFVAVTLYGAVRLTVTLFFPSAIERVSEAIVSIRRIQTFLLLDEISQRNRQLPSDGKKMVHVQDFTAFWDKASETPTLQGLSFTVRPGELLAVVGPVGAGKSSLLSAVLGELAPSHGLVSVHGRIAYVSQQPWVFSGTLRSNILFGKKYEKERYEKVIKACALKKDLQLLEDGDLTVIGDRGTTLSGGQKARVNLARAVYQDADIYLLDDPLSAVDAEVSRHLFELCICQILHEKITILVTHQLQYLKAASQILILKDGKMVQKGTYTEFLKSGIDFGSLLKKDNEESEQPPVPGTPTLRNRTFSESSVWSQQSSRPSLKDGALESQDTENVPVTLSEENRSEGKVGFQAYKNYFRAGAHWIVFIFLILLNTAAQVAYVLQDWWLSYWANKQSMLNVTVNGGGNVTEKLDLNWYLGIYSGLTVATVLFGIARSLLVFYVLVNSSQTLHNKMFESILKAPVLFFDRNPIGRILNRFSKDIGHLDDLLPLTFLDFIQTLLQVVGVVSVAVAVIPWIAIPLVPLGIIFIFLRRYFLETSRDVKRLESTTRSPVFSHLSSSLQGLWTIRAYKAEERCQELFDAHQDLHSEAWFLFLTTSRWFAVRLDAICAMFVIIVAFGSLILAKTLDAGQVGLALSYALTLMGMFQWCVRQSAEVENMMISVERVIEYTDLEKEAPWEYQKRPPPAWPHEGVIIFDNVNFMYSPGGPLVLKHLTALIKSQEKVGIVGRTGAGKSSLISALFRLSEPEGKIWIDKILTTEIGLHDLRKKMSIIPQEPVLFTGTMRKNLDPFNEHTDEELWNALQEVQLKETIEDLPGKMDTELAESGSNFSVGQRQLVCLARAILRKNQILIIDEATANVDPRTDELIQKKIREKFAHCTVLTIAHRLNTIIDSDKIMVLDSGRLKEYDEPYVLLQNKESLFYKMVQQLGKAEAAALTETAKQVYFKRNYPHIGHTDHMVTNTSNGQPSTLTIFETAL
# [1] = 0.03 µM nominal + Probenecid 300 µM
# [2] = 0.30 µM nominal + Probenecid 300 µM
compound,measurement,setting,value
"[3H]C(c1ccc2ccccc2c1)C([3H])(NC(=O)C1CCC(CNC(=O)CN2CCN(CC(=O)[O-])CCN(CC(=O)[O-])CCN(CC(=O)[O-])CC2)CC1)C(=O)NCCCCC(NC(=O)NC(CCC(=O)O)C(=O)O)C(=O)O.[Lu+3] (stereo not drawn) [([α,β-^3H]Nal)Lu-PSMA-617]",Accumulation in OAT1 transporter expressing cells,human OAT1; [1],0.04 ± 0.00 pmol/mg protein
same,Accumulation in control cells,human OAT1; [1],0.03 ± 0.00 pmol/mg protein
same,"Accumulation, active transport",human OAT1; [1],0.00 ± 0.00 pmol/mg protein
same,Fold accumulation,human OAT1; [1],1.10
same,Accumulation in OAT1 transporter expressing cells,"human OAT1; 0.03 µM nominal, no inhibitor",0.06 ± 0.01 pmol/mg protein
same,Accumulation in control cells,"human OAT1; 0.03 µM nominal, no inhibitor",0.05 ± 0.01 pmol/mg protein
same,"Accumulation, active transport","human OAT1; 0.03 µM nominal, no inhibitor",0.01 ± 0.01 pmol/mg protein
same,Fold accumulation,"human OAT1; 0.03 µM nominal, no inhibitor",1.17
same,Accumulation in OAT1 transporter expressing cells,human OAT1; [2],0.62 ± 0.13 pmol/mg protein
same,Accumulation in control cells,human OAT1; [2],0.44 ± 0.10 pmol/mg protein
same,"Accumulation, active transport",human OAT1; [2],0.18 ± 0.16 pmol/mg protein
same,Fold accumulation,human OAT1; [2],1.42
same,Accumulation in OAT1 transporter expressing cells,"human OAT1; 0.30 µM nominal, no inhibitor",0.36 ± 0.02 pmol/mg protein
same,Accumulation in control cells,"human OAT1; 0.30 µM nominal, no inhibitor",0.34 ± 0.06 pmol/mg protein
same,"Accumulation, active transport","human OAT1; 0.30 µM nominal, no inhibitor",0.01 ± 0.06 pmol/mg protein
same,Fold accumulation,"human OAT1; 0.30 µM nominal, no inhibitor",1.04
same,"Max. transporter-specific fold accumulation, without inhibitor",human OAT1; 0.03 µM,1.17
same,Uptake via transporter (OAT1),human OAT1; absence and presence of probenecid,not taken up
same,"Max. transporter-specific fold accumulation, with inhibitor","human OAT1; Probenecid, 0.03 µM",1.10
same,Relative inhibition,human BCRP; test substance 0.30 µM nominal,1%
same,ATP dependent transport,human BCRP; test substance 0.30 µM nominal,23285.00 ± 769.03 pmol/mg/min
same,Relative ATP dependent transport,human BCRP; test substance 0.30 µM nominal,98.5 ± 3.67 % of control
same,Relative inhibition,human BCRP; test substance 3.00 µM nominal,0%
same,ATP dependent transport,human BCRP; test substance 3.00 µM nominal,23687.00 ± 869.33 pmol/mg/min
same,Relative ATP dependent transport,human BCRP; test substance 3.00 µM nominal,100.22 ± 4.06 % of control
same,Inhibitor assessment (MRP4),"MRP4; 0.30 and 3.00 µM, inhibition >20% defined as significant",no inhibitor
same,Relative inhibition,MRP4; test substance 0.30 µM nominal,-1%
same,ATP dependent transport,MRP4; test substance 0.30 µM nominal,13761.00 ± 400.40 pmol/mg/min
same,Relative ATP dependent transport,MRP4; test substance 0.30 µM nominal,100.94 ± 4.07 % of control
same,Relative inhibition,MRP4; test substance 3.00 µM nominal,-6%
same,ATP dependent transport,MRP4; test substance 3.00 µM nominal,14510.33 ± 290.35 pmol/mg/min
same,Relative ATP dependent transport,MRP4; test substance 3.00 µM nominal,106.44 ± 3.66 % of control

# — PMC11053447, “Human ABC and SLC Transporters: The Culprit Responsible for Unspecific PSMA-617 Uptake?” (Pharmaceuticals, 2024)
